# Read-outs that look alike come from different tables or passages of the source.
# Assays:
# [1] = biological target: T1, SARS 3C-like proteinase (Severe acute respiratory syndrome coronavirus, UniProt P0C6X7); conditions: pH 7.3
# [2] = format: physicochemical; conditions: pH 7.3
# [3] = biological target: T1, SARS 3C-like proteinase; conditions: pH 7.3; remark: listed apart in the source
# [4] = pH 7.3
# [5] = biological target: SARS coronavirus 3C-like proteinase, C-terminal His6 tag (plasmid pET 3CLP-21x) (SARS coronavirus) (UniProt P0C6X7); assay: SEC
Substance,Km [1] [µM],kcat [1] [s⁻¹],kcat/Km [1],Calculated secondary structure content: Helix [2],Calculated secondary structure content: Other [2],Calculated secondary structure content: Sheet [2],Calculated secondary structure content: Tum [2],kcat/Km [3],solubility [4],Kd [5] [µM]
ATVRLQ/AGNAT [Peptide S06],1440 ± 470,0.0548 ± 0.0178,2.29 ± 0.09 ^a mM^-1 min^-1,2,43,25,30,–,–,–
FYPKLQ/ASQAW [Peptide S11],549 ± 105,0.0262 ± 0.00467,2.86 ± 0.21 ^a mM^-1 min^-1,2,36,30,32,–,–,–
KVATVQ/SKMSD [Peptide S03],–,–,–,2,46,25,28,0.353 ± 0.013 ^b mM^-1 min^-1,–,–
NRATLQ/AIASE [Peptide S04],–,–,–,2,45,24,30,0.556 ± 0.126 ^b mM^-1 min^-1,–,–
NVATLQ/AENVT [Peptide S09],–,–,–,–,–,–,–,0.976 ± 0.014 ^b mM^-1 min^-1,very low solubility,–
PHTVLQ/AVGAC [Peptide S08],1940 ± 660,0.028 ± 0.0095,0.865 ± 0.028 ^a mM^-1 min^-1,5,45,21,29,–,–,–
REPLMQ/SADAS [Peptide S07],–,–,–,1,41,18,40,0.0176 ± 0.0022 ^b mM^-1 min^-1,–,–
"SARS coronavirus 3C-like proteinase, C-terminal His6 tag (plasmid pET 3CLP-21x) (from UniProt P0C6X7 3241-3546) (enzyme)",–,–,–,–,–,–,–,–,–,100
SAVKLQ/NNELS [Peptide S05],–,–,–,10,44,19,27,0.202 ± 0.003 ^b mM^-1 min^-1,–,–
SGVTFQ/GKFKK [Peptide S02],583 ± 86,0.0425 ± 0.00583,4.38 ± 0.26 ^a mM^-1 min^-1,3,31,42,24,–,–,–
TFTRLQ/SLENV [Peptide S10],286 ± 20,0.0141 ± 0.00085,2.96 ± 0.11 ^a mM^-1 min^-1,4,41,22,33,–,–,–

# Source: PMC7980035 (The Journal of Biological Chemistry, 2021)
